The results in this text go back to patent publication US12024707B2, “Methods and compositions for modulating lncRNAs and methods of treatment based on lncRNA expression” (Washington University, priority 2020, dated 2024).

The subject of the assay is HT29 RAMS11 overexpressing cells. Nature of the assay: High-throughput viability assay (resazurin), 119 FDA-approved anticancer drugs, RAMS11 overexpressing cells (Clone1, Clone2).
Where [1] appears, read: OE1 (RAMS11 overexpression clone 1), 0.1 uM drug, 72 h, vs empty vector control.
Where [2] appears, read: OE1 (RAMS11 overexpression clone 1), 1 uM drug, 72 h, vs empty vector control.
[3] abbreviates: OE1 (RAMS11 overexpression clone 1), 10 uM drug, 72 h, vs empty vector control.
Where [4] appears, read: OE2 (RAMS11 overexpression clone 2), 0.1 uM drug, 72 h, vs empty vector control.
Where [5] appears, read: OE2 (RAMS11 overexpression clone 2), 1 uM drug, 72 h, vs empty vector control.
Where [6] appears, read: OE2 (RAMS11 overexpression clone 2), 10 uM drug, 72 h, vs empty vector control.

Several values for one entry are separate records, joined by “and”; a condition that tells them apart may be missing. Equal values may be shown once. Where a name gives a salt, the structure may show the parent alone. Read-outs that look alike come from different tables or passages of the source. Starred links: 1 amine or outer side, 2 acyl side, 3 side chain; linkers in the order of their positions; H or OH if unused. Positions of bridges follow the written chain, without caps; N, C: chain ends. Non-standard residues stand in square brackets, D forms with d. Residues, ends and D or L forms follow the SMILES beside them. Chains are numbered I, II in the order given. Actinocin(9to1) = Cc1c2oc3c(C)ccc(C(=O)[*:1])c3nc-2c(C(=O)[*:2])c(N)c1=O; NMeV = CN[C@H](C(=O)O)C(C)C; Sar = CNCC(=O)O

Protocol: The FDA-approved anticancer panel included multiple classes of drugs such as kinase inhibitors, alkylating agents, antineoplastic antibiotics, anthracycline antibiotics, and antineoplastic agents (topoisomerase inhibitors). The HT29 RAMS11 overexpressing and control cells were treated for 72 h to assess cellular viability upon drug treatment (FIG. 14a and TABLE 3). […] Due to 5-FU commonly used to treat mCRC, we further determined if RAMS11 expression altered drug sensitivity in treated cells.
Drugs were diluted in DMSO to 1 mM and the well assignments were rearranged so drugs were confined to the inner 60 wells of 96-well plates. […] The next day serial diluted drug was added to pre-seeded plates in media containing 1% DMSO vehicle, using a Robbins Hydra 96 micro dispenser. Two 96-well plates of cells were used as vehicle controls. The plates were incubated for 3 days. Percent viability was scored by incubating cells for 3 h with resazurin sodium (0.023 mg/mL, Sigma R7017). The reaction was stopped by the addition of SDS (1% final concentration). Fluorescence Ex/Em 540/590 was read in a Biotek Synergy H1 plate reader (Winooski, VT). The fluorescence values for the vehicle plates were averaged and percent viability was determined by the formula: Percent viability=(average vehicle−value)/(average vehicle−average resazurin in media blank)×100. […] Assays were repeated more than three times.

For `Nc1nc(Cl)nc2c1ncn2[C@@H]1O[C@H](CO)[C@@H](O)[C@@H]1F` [Clofarabine], the “Viability Fold Change” value turned out to be 0.9141 under setting [1]; 1.361 under setting [2]; 2.473 under setting [3]; 1.012 under setting [4]; 1.421 under setting [5]; 2.375 under setting [6].
As to `C[C@@H](Oc1cc(-c2cnn(C3CCNCC3)c2)cnc1N)c1c(Cl)ccc(F)c1Cl` [Crizotinib], the “Viability Fold Change” value by setting is: under setting [1], 0.9595; under setting [2], 1.07; under setting [3], 0.9127; under setting [4], 0.9806; under setting [5], 1.093; under setting [6], 0.8562.
As to `O=P1(N(CCCl)CCCl)NCCCO1` (stereo not shown) [Cyclophosphamide], the “Viability Fold Change” value was 0.857 and 0.9632 and 0.9808 and 0.899 and 1.019 and 0.881.
Regarding `Nc1ccn([C@@H]2O[C@H](CO)[C@@H](O)[C@@H]2O)c(=O)n1` [Cytarabine hydrochloride], the “Viability Fold Change” value is, setting by setting: under setting [1], 0.9825; under setting [2], 1.254; under setting [3], 1.524; under setting [4], 0.9917; under setting [5], 1.381; under setting [6], 1.876.
As to `CN(C)/N=N/c1[nH]cnc1C(N)=O` [Dacarbazine], the “Viability Fold Change” value by setting is: under setting [1], 1.078; under setting [2], 0.9877; under setting [3], 0.983; under setting [4], 1.084; under setting [5], 1.028; under setting [6], 0.9794.
For the compound `Cc1c2oc3c(C)ccc(C(=O)N[C@@H]4C(=O)N[C@H](C(C)C)C(=O)N5CCC[C@H]5C(=O)N(C)CC(=O)N(C)[C@@H](C(C)C)C(=O)O[C@@H]4C)c3nc-2c(C(=O)N[C@@H]2C(=O)N[C@H](C(C)C)C(=O)N3CCC[C@H]3C(=O)N(C)CC(=O)N(C)[C@@H](C(C)C)C(=O)O[C@@H]2C)c(N)c1=O` [Dactinomycin] (I: T[dV]P[Sar][NMeV] / II: T[dV]P[Sar][NMeV]; ester I:1-I:C, II:1-II:C; linker I:N-II:N via Actinocin(9to1)), the “Viability Fold Change” value is 1.513 under setting [1]; 1.552 under setting [2]; 2.719 under setting [3]; 1.417 under setting [4]; 1.475 under setting [5]; 2.498 under setting [6].
In the case of `Cc1nc(Nc2ncc(C(=O)Nc3c(C)cccc3Cl)s2)cc(N2CCN(CCO)CC2)n1` [Dasatinib], the “Viability Fold Change” value by setting is: under setting [1], 0.7242; under setting [2], 1.289; under setting [3], 1.518; under setting [4], 0.7852; under setting [5], 1.567; under setting [6], 1.607.
Take `Nc1ncn([C@H]2C[C@H](O)[C@@H](CO)O2)c(=O)n1` [Decitabine]: the “Viability Fold Change” value reads like this: under setting [1], 0.9064; under setting [2], 0.9366; under setting [3], 0.8624; under setting [4], 1.026; under setting [5], 1.091; under setting [6], 1.168.
`C[C@@H](CN1CC(=O)NC(=O)C1)N1CC(=O)NC(=O)C1` [Dexrazoxane]: the “Viability Fold Change” value under setting [1] stood at 0.9553; the “Viability Fold Change” value under setting [2] stood at 0.9814; the “Viability Fold Change” value under setting [3] came out at 0.8688; the “Viability Fold Change” value under setting [4] was 0.9411; the “Viability Fold Change” value under setting [5] is reported as 1.049; the “Viability Fold Change” value under setting [6] stood at 1.119.
In the case of `CC(=O)O[C@@]12CO[C@@H]1C[C@H](O)[C@@]1(C)C(=O)[C@H](O)C3=C(C)[C@@H](OC(=O)[C@H](O)[C@@H](NC(=O)OC(C)(C)C)c4ccccc4)C[C@@](O)([C@@H](OC(=O)c4ccccc4)[C@H]21)C3(C)C` [Docetaxel], the “Viability Fold Change” value was determined as 2.831 under setting [1]; 2.996 under setting [2]; 2.894 under setting [3]; 2.726 under setting [4]; 2.845 under setting [5]; 2.869 under setting [6].
With `CNC(=O)c1ccc(N2C(=S)N(c3ccc(C#N)c(C(F)(F)F)c3)C(=O)C2(C)C)cc1F` [Enzalutamide], the “Viability Fold Change” value reads like this: under setting [1], 1.043; under setting [2], 1.081; under setting [3], 1.088; under setting [4], 1.022; under setting [5], 1.152; under setting [6], 1.1.
Turning to `COc1cccc2c1C(=O)c1c(O)c3c(c(O)c1C2=O)C[C@@](O)(C(=O)CO)C[C@@H]3O[C@H]1C[C@H](N)[C@@H](O)[C@H](C)O1` [Epirubicin hydrochloride], the “Viability Fold Change” value runs as follows: under setting [1], 1.025; under setting [2], 1.822; under setting [3], 2.19; under setting [4], 1.023; under setting [5], 1.861; under setting [6], 1.999.
As for `C#Cc1cccc(Nc2ncnc3cc(OCCOC)c(OCCOC)cc23)c1` [Erlotinib HCl], the “Viability Fold Change” value turned out to be 0.9958 under setting [1]; 1.169 under setting [2]; 1.179 under setting [3]; 0.9899 under setting [4]; 1.172 under setting [5]; 1.215 under setting [6].
Regarding `C[C@]12CC[C@@H]3c4ccc(OC(=O)N(CCCl)CCCl)cc4CC[C@H]3[C@@H]1CC[C@@H]2O` [Estramustine], the “Viability Fold Change” value under setting [1] was found to be 0.97; the “Viability Fold Change” value under setting [2] stood at 1.105; the “Viability Fold Change” value under setting [3] is 1.034; the “Viability Fold Change” value under setting [4] amounted to 0.951; the “Viability Fold Change” value under setting [5] turned out to be 1.223; the “Viability Fold Change” value under setting [6] was found to be 1.025.
Consider `COc1cc([C@@H]2c3cc4c(cc3C(O[C@@H]3O[C@@H]5CO[C@@H](C)O[C@H]5[C@H](O)[C@H]3O)C3COC(=O)[C@@H]32)OCO4)cc(OC)c1O` (stereo partly shown) [Etopside], for which the “Viability Fold Change” value was 1.144 under setting [1]; 1.073 under setting [2]; 1.161 under setting [3]; 1.13 under setting [4]; 0.9992 under setting [5]; 1.196 under setting [6].
As for `CO[C@H]1C[C@@H]2CC[C@@H](C)[C@@](O)(O2)C(=O)C(=O)N2CCCC[C@H]2C(=O)O[C@H]([C@H](C)C[C@@H]2CC[C@@H](OCCO)[C@H](OC)C2)CC(=O)[C@H](C)/C=C(\C)[C@@H](O)[C@@H](OC)C(=O)[C@H](C)C[C@H](C)/C=C/C=C/C=C/1C` [Everolimus], the “Viability Fold Change” value is on record as 0.6419 under setting [1]; 0.7474 under setting [2]; 0.6863 under setting [3]; 0.6484 under setting [4]; 0.7943 under setting [5]; 0.721 under setting [6].
Turning to `C=C1C[C@@H]2[C@H](CC[C@]3(C)C(=O)CC[C@@H]23)[C@@]2(C)C=CC(=O)C=C12` [Exemestane], the “Viability Fold Change” value is given as 0.8651 under setting [1]; 0.981 under setting [2]; 0.9176 under setting [3]; 1.047 under setting [4]; 1.008 under setting [5]; 1.06 under setting [6].
As for `Nc1nc(F)nc2c1ncn2[C@@H]1O[C@H](CO)[C@@H](O)[C@@H]1O` [Fludarabine], the “Viability Fold Change” value is, setting by setting: under setting [1], 0.869; under setting [2], 0.9921; under setting [3], 1.056; under setting [4], 0.973; under setting [5], 1.069; under setting [6], 1.073.
Regarding `C[C@]12CC[C@@H]3c4ccc(O)cc4C[C@@H](CCCCCCCCC[S+]([O-])CCCC(F)(F)C(F)(F)F)[C@H]3[C@@H]1CC[C@@H]2O` (stereo partly shown) [Fulvestrant], the “Viability Fold Change” value was 1.048 under setting [1]; 1.037 under setting [2]; 1.135 under setting [3]; 1.088 under setting [4]; 1.089 under setting [5]; 1.036 under setting [6].
For `COc1cc2ncnc(Nc3ccc(F)c(Cl)c3)c2cc1OCCCN1CCOCC1` [Gefitinib], the “Viability Fold Change” value is, setting by setting: under setting [1], 0.9453; under setting [2], 1.164; under setting [3], 1.468; under setting [4], 0.9436; under setting [5], 1.227; under setting [6], 1.392.
Turning to `NC(=O)NO` [Hydroxyurea], the “Viability Fold Change” value reads like this: under setting [1], 0.9496; under setting [2], 0.9632; under setting [3], 0.9723; under setting [4], 0.9871; under setting [5], 1.074; under setting [6], 0.9675.
With `CC(=O)[C@]1(O)Cc2c(O)c3c(c(O)c2[C@@H](O[C@H]2C[C@H](N)[C@H](O)[C@H](C)O2)C1)C(=O)c1ccccc1C3=O` [Idarubicin hydrochloride], the “Viability Fold Change” value runs as follows: under setting [1], 1.365; under setting [2], 1.73; under setting [3], 3.603; under setting [4], 1.573; under setting [5], 1.623; under setting [6], 3.696.
